Results from PMC11986975, “A Cdk5 inhibitor restores cognitive function and alleviates type 2 diabetes in mice” (iScience, 2025).
pIC50: −log10 of the molar value.

Assays:
Cdk5/p35 = Cdk5/p35 (Homo sapiens, UniProt Q00535); assay: Cdk5 kinase assay (ADP-Glo) with Cdk5/p35 complex; type: biochemical; settings: 10 μM ATP, histone substrate, inhibitor 0-100 nM
Description: The test tube Cdk5 Kinase assay was performed utilizing Cdk5/p35 and Cdk5/p25 complexes as kinases, following the modified procedure outlined in a previous study,[52] using a Promega ADP-GloTM Kinase Assay kit. The reaction was carried out with 10 μM ATP and 2 μg of histone as the substrate for Cdk5 complexes. To study the inhibition patterns, 19 Cdk5 inhibitors (BLINK1-19) identified through molecular docking were added to the Cdk5 kinase reaction in increasing concentrations ranging from 0 to 100 nM. The IC50 (half-maximal inhibitory concentration) values of all the inhibitors were calculated based on Log(inhibitor) vs. normalized response using GraphPad software.

Cdk1/CylY = assay: Specificity kinase assay, Cdk1 with cyclin Y; type: biochemical; settings: inhibitor 0-100 nM; read-out: IC50, Cdk1 with activator cyclin Y
Cdk1/CylY, sequence (P06493 whole entry): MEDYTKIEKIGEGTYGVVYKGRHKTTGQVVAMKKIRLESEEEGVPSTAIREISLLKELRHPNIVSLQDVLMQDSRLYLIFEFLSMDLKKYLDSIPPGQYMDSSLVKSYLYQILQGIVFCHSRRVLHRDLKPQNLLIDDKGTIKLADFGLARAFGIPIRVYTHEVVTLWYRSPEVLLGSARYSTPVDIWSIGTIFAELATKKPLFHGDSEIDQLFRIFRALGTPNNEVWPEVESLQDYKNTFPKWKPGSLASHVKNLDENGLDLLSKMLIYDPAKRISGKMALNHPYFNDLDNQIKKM
Cdk1/CylY, sequence (Q8ND76 2-341 partner): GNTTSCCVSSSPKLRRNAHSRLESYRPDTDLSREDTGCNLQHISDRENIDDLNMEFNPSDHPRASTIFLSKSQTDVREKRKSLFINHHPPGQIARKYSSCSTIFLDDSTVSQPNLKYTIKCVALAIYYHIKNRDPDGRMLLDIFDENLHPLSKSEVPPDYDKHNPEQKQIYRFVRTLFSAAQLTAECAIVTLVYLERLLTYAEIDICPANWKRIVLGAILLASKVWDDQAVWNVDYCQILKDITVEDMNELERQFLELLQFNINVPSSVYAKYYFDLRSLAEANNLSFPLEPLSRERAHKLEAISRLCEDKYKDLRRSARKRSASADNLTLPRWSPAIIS
From the text: To assess the specificity of inhibitors BLINK11 and BLINK15 against CDK5, we investigated their effects on different Cdks, i.e., Cdk1, Cdk2, and Cdk9 that share structural homology with CDK5. […] However, these IC50 values were higher than those observed for CDK5/p35 and CDK5/p25. […] Overall, BLINK11 and BLINK15 can selectively target CDK5 at lower concentrations. […]
(§1) IC50 of all the kinases for both BLINK11 and BLINK15 inhibitors.

Cdk9/CylT = assay: Specificity kinase assay, Cdk9 with cyclin T; type: biochemical; settings: inhibitor 0-100 nM
From the text: To assess the specificity of inhibitors BLINK11 and BLINK15 against CDK5, we investigated their effects on different Cdks, i.e., Cdk1, Cdk2, and Cdk9 that share structural homology with CDK5. […] However, these IC50 values were higher than those observed for CDK5/p35 and CDK5/p25. […] Overall, BLINK11 and BLINK15 can selectively target CDK5 at lower concentrations.
ligands are illustrated with red lines. The RMSD plots for the interactions of BLINK11 and
Figure S3: BBB Permeability assay and Evaluation of non-specific kinase inhibition by
BLINK11 and BLINK15 (A-B) PAMPA assay results of BLINK11 and BLINK15 compound.
as §1
(1 picture or pasted object on this page, not shown here)

HFD-fed mice [1] = assay: Insulin tolerance test (ITT) in HFD mice; type: in vivo; settings: i.p., both dosages 20 and 40 mg/kg/day, 20 days
Description: For the glucose tolerance test, 2 g/kg of glucose was utilized, and 0.75U/kg of human insulin was employed The glucose tolerance test (GTT) and insulin tolerance test (ITT) were performed in HFD mice models after 20 weeks of HFD feeding followed by 20 days of drug administration.[48] For GTT the mice were kept in a fasting period for overnight before glucose injections of 2 g/kg intraperitoneally. For ITT the mice were kept in a fasting for 6 h prior to insulin injection of 0.75 U/kg intraperitoneally. A one-touch glucometer was used to assess the blood sugar levels at various intervals (0, 60, and 120 min) following intraperitoneal infusion of both glucose and insulin.[23]^,[49]^,[50]^,[51] After 20 weeks of a HFD and 20 days of drug administration, the tests were carried out.

HFD-fed mice [2] = assay: Elevated plus maze (EPM) in HFD mice; type: in vivo; settings: i.p., 20 days, compared to HFD group
From the text: In order to examine anxiety-like behavior, phenotype transgenic and knockout mice, and screen for anxiolytic and anxiogenic medicines, this maze takes advantage of the natural fear of open, high areas in rodents.[56]^,[57]
The EPM experiment is a widely utilized technique in behavioral neuroscience to evaluate anxiety-related behaviors in mice.[57] The apparatus comprises two open arms and two closed arms arranged in a plus-shaped configuration and elevated above the ground. Mice are introduced to the center of the maze, and their movements are observed over a set period of 5 min.[56]^,[58] The amount of time spent in the open arms versus the closed arms is recorded, with more time in the open arms indicating lower anxiety levels. The distance traveled in each arm were also analyzed using ANYmaze software. This method leverages the natural tendency of rodents to avoid open spaces and seek enclosed areas.

[3] = tested on: neurodegenerative markers in hippocampus; assay: Western blot of hippocampal proteins (Cdk5, p35/p25, NF-H, p-NF-H, NF-L, tau, p-tau) in treated HFD mice; type: in vivo; settings: i.p.
Description: For tissue lysate preparation the mice were sacrificed following the Institution’s ethical guidelines. The hippocampus was isolated from the rest of the brain and treated in a tissue lysis solution with a protease and phosphatase inhibitor cocktail. Western blotting was performed to study the expression patterns of the protein of interest. Each well of a polyacrylamide gel was loaded with an identical amount of protein lysate (40–50 μg), which was then transferred to the nitrocellulose membrane. In 1X PBS with 0.1% (v/v) Tween 20, the main antibodies were diluted.

HFD-fed mice [4] = assay: Rotarod test in HFD mice; type: in vivo; settings: i.p., 20 days
Description: Rats and mice have been tested for motor coordination using the rotarod test. The animals were placed on a horizontal rod that rotates around its long axis for this test; in order to remain upright and prevent sliding off, the animal must move ahead. Every 5 min, the rod’s speed was raised, and the number of falls were counted to assess the motor coordination.[23]^,[55]

HFD-fed mice [5] = assay: Y-maze test in HFD mice; type: in vivo; settings: i.p., 20 days
Description: As previously mentioned, the Y-maze test was utilized to evaluate the mouse groups' short-term spatial memory The Y-maze test was used to assess short-term spatial memory in the mouse groups. The apparatus consists of three arms arranged in a Y-shape, typically labeled A, B, and C, with each arm having the same length and width. Mice were initially placed in one arm (usually arm A) and allowed to explore freely for 5 min, with one of the other arms blocked off, restricting exploration to the starting arm and the remaining open arm. After a 5-min delay, the mouse was reintroduced to the maze with all arms accessible. The time spent in each arm and the number of entries into each arm were recorded over a 5-min period. […] We also evaluated the mice’s spontaneous alternation rate during the Y-maze test. Spontaneous alternation reflects working memory, as it refers to the mouse’s tendency to enter a less recently visited arm. The sequence and number of arm entries were tracked, with an alternation defined as consecutive entries into all three arms without repetition (e.g., A-B-C, B-C-A).[59]^,[60]^,[61] […] As a result, we evaluated the novel arm’s exploration according to many criteria.Spontaneous Alternation (%) = {(Number of alternations)/ (Total arm entries−2)} ×100

amyloid beta (Aβ) 1–42 = assay: Amyloid beta 1-42 in hippocampus of treated HFD mice (ELISA and immunohistochemistry); type: in vivo; settings: i.p., 40 mg/kg

Cdk5/p35, sequence (Q00535 whole entry, species assumed): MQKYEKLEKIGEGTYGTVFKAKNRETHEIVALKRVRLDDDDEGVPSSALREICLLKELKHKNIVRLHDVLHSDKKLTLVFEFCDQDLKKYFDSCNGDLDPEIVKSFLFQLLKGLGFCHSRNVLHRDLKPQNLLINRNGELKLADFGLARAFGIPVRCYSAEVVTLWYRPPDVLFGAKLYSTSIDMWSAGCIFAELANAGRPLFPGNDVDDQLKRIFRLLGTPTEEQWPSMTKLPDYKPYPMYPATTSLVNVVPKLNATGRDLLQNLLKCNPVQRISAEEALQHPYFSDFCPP
Cdk5/p35, sequence (Q15078 whole entry partner, species assumed): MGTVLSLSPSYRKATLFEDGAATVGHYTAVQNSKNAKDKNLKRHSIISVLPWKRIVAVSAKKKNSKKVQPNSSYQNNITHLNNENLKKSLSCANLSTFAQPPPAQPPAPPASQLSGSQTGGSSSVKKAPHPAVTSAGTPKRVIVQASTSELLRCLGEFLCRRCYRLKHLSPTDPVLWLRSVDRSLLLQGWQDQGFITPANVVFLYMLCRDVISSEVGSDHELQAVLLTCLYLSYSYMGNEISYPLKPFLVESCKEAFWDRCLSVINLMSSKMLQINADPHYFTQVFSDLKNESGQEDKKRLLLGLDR

IC50 (Cdk5/p35) | pIC50 (Cdk1/CylY) | Inhibition of Cdk9 (with cyclin T) (Cdk9/CylT) | Compound | Insulin tolerance test (ITT) (HFD-fed mice [1]) | Anxiety behavior in elevated plus maze (time in open and closed arms) (HFD-fed mice [2]) | Hippocampal expression levels of CDK5 ([3]; 20 days) | p25 generation in hippocampus ([3]; 20 days) | Muscle strength and motor coordination on the rotarod (HFD-fed mice [4]) | Y-maze alteration percentage (HFD-fed mice [5]; 20 mg/kg/day) | Y-maze alteration percentage (HFD-fed mice [5]; 40 mg/kg/day) | neurofilament light chain (NF-L) levels in hippocampus ([3]; 20 days) | phospho-tau-396Ser levels in hippocampus ([3]; 20 days) | phospho-NF-H levels in hippocampus ([3]; particularly at a higher dose) | Aβ 1–42 accumulation in the hippocampus (amyloid beta (Aβ) 1–42)
29.3 nM | 7.45 | minimal inhibition | COc1ccc(C(=O)C[C@@]2(O)C(=O)N(Cc3ccccc3)c3ccc(Br)cc32)cc1[N+](=O)[O-] [BLINK15] | significant rescue | no significant difference compared to the HFD group | remain unaltered | remains unchanged |  |  |  |  |  |  | 
17.1 nM | 7.41 | minimal inhibition | O=C(COc1ccccc1C(=O)Nc1cccc(Cl)c1Cl)Nc1ccc(N2CCOCC2)c(Cl)c1 [BLINK11, 2-(2-((3-chloro-4-morpholinophenyl)amino)-2-oxoethoxy)-N-(2,3-dichlorophenyl)benzamide] | significant rescue | rescuing effect on anxiety behavior | remain unaltered | remains unchanged | rescue effect | did not exhibit any rescue effect | the decrease in alteration percentage was recovered | restored | significantly decreased | significantly reduced | significantly reduced
